Results reported in paper PMC5557916, “A new method to investigate the catalytic mechanism of YhdE pyrophosphatase by using a pyrophosphate fluorescence probe” (Scientific Reports, 2017).

Legend:
YhdE = biological target: T1, YhdE (Escherichia coli, UniProt P25536); assay: fluorescence PPi sensor (4-isoACBA-Zn(II)), real-time; type: biochemical; conditions: 20 mM HEPES pH 7.0, 0.4 mM Zn2+, 0.1 mM 4-isoACBA, 298 K; 75 nM enzyme
T1 construct: recombinant, cloned in vector pFO4, expressed in E. coli BL21(DE3); PDB entries are of the E33A mutant

[1] = substrate: Cc1cn([C@H]2C[C@H](O)[C@@H](COP(=O)(O)OP(=O)(O)OP(=O)(O)O)O2)c(=O)[nH]c1=O; assay: as above; type: biochemical, Escherichia coli; conditions: 20 mM HEPES pH 7.0, 0.4 mM Zn2+, 0.1 mM 4-isoACBA, 298 K, 7.5 μM enzyme, 25.0 °C

| Molecule | apparent Km (YhdE) | Km [1] [µM] |
| --- | --- | --- |
| Cc1cn([C@H]2C[C@H](O)[C@@H](COP(=O)(O)OP(=O)(O)OP(=O)(O)O)O2)c(=O)[nH]c1=O [dTTP] | somewhat surprisingly, is similar to that of the wild-type YhdE |  |
| YhdE (Escherichia coli K-12; E33A) (protein, recombinant, cloned in vector pFO4, expressed in E. coli BL21(DE3); PDB entries are of the E33A mutant) MTSLYLASGSPRRQELLAQLGVTFERIVTGIEAQRQPQESAQQYVVRLAREKARAGVAQTAKDLPVLGADTIVILNGEVLEKPRDAEHAAQMLRKLSGQTHQVMTAVALADSQHILDCLVVTDVTFRTLTDEDIAGYVASDEPLDKAGAYGIQGLGGCFVRKINGSYHAVVGLPLVETYELLSNFNALREKRDKHDG |  | 75 |
